Assay results from ChEMBL document CHEMBL1201862, “PubChem BioAssay data set” (2004).
Activity calls are given as the source filed them.

Experiments:
Interleukin-8 = target: T1, Interleukin-8 (Homo sapiens, UniProt P10145); assay: Dose Response confirmation of uHTS small molecule hits for cystic fibrosis induced NFkb Inhibitors in a PAF-induced IL8 counterscreen.; type: functional; conditions: read-out: IC50_Mean
T1 sequence (P10145 whole entry): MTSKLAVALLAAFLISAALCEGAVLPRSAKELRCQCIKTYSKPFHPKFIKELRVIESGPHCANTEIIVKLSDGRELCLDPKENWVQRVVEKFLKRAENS

[1] = target: Nuclear receptor subfamily 5 group A member 2 (Homo sapiens, UniProt O00482); type: functional, cell-based;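 further: HEK293T cells transfected with LRH-1 and a StAR promoter luciferase reporter; potency for inhibitors that lower LRH-1 driven reporter light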
Chain of Nuclear receptor subfamily 5 group A member 2 (O00482 whole entry): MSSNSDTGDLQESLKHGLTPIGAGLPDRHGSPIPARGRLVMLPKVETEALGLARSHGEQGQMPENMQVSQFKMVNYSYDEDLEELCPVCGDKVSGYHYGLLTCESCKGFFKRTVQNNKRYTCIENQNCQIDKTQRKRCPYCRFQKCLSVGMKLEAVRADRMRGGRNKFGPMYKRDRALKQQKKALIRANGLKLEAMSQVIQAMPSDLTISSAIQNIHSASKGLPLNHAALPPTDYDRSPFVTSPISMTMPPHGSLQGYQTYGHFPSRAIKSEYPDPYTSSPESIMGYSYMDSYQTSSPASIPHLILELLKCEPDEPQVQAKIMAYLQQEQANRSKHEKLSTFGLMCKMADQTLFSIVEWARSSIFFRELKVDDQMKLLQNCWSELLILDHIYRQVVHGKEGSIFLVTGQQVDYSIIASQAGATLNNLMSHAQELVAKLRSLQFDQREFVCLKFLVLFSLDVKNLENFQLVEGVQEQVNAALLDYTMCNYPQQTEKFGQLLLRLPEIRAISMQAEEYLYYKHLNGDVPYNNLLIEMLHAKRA

Steroidogenic factor 1 = Steroidogenic factor 1 (Homo sapiens, UniProt Q13285); assay: Counterscreen for inverse agonists of the liver receptor homolog-1 (LRH-1; NR5A2): Luminescence-based cell-based high throughput dose response assay to identify inverse agonists of the Steroidogenic Factor 1 Nuclear Receptor (SF1; NR5A1).; type: functional
Chain of Steroidogenic factor 1 (Q13285 whole entry): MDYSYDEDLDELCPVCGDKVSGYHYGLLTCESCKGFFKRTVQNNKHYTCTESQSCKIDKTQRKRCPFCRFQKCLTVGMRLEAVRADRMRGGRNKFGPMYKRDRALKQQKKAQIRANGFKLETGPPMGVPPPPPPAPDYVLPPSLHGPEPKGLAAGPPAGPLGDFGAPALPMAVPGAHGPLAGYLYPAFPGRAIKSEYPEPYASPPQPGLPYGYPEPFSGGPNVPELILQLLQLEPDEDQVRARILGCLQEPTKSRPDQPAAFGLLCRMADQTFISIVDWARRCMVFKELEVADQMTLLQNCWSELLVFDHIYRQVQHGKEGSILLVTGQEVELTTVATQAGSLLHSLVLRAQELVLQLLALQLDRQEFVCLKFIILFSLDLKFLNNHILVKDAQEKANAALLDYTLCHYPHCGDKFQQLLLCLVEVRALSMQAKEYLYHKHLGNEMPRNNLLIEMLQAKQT

[2] = StAR promoter reporter inhibition counter-screen, dose response, counter-screen for LRH-1 inverse agonist project, cell-based, luminescence, luciferase reporter (AID 651969); type: functional
Protein Wnt-3a = Protein Wnt-3a (Mus musculus, UniProt P27467); assay: SAR analysis of small molecule antagonists of Gli-SUFU in a Wnt3a luminescent reporter assay.; type: functional
Chain of Protein Wnt-3a (P27467 whole entry): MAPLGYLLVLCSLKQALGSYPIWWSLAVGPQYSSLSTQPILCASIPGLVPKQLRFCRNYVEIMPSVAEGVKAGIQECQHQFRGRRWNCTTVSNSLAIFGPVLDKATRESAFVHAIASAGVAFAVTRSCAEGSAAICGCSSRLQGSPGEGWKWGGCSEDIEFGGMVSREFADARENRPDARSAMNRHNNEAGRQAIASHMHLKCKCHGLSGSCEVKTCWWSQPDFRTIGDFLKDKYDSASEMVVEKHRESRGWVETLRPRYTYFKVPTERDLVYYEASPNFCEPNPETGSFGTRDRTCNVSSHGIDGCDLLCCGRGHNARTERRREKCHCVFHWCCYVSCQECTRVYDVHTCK

Albumin = Albumin (Bos taurus, UniProt P02769); assay: Counterscreen for inhibitors of T-cell receptor (TCR)-CD3 interaction: Fluorescence-based biochemical high throughput dose response assay to identify inhibitors of T-cell receptor (TCR)-CD3 interaction using a TAMRA-labeled BSA probe.; type: functional
Chain of Albumin (P02769 whole entry): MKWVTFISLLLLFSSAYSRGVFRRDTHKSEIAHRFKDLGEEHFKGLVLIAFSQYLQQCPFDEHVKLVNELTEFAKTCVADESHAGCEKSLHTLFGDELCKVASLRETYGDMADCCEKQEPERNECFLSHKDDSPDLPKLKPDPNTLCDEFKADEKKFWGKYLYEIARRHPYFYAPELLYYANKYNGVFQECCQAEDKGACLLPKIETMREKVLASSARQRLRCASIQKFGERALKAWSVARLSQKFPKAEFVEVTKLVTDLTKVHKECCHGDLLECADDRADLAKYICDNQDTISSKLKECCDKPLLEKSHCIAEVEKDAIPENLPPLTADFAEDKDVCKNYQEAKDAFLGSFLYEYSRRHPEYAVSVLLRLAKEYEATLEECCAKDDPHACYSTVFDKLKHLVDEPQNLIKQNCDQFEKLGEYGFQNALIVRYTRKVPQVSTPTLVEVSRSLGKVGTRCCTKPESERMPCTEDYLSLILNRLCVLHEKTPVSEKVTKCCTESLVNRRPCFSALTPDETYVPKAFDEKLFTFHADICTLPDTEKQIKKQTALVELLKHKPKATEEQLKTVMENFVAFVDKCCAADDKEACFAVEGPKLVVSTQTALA

[3] = target: T2, Trace amine-associated receptor 1 (Homo sapiens, UniProt Q96RJ0); assay: Counterscreen for agonists of the human trace amine associated receptor 1 (hTAAR1): Fluorescence-based cell-based high throughput dose response assay to identify hTAAR1 agonist that also desensitize TAAR1 receptor response.; type: functional
T2 sequence (Q96RJ0 whole entry): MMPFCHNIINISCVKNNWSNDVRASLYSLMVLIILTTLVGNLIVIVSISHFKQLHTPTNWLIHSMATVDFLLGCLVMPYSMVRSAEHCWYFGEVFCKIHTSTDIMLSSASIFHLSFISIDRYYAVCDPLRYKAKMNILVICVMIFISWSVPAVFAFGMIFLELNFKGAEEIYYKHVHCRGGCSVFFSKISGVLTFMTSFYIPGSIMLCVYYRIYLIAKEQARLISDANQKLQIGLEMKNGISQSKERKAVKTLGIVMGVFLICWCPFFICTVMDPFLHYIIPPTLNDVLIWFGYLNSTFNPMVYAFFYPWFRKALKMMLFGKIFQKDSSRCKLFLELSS

cells [4] = type: functional, cell-based
[5] = target: T2, Trace amine-associated receptor 1; assay: Fluorescence-based cell-based high throughput dose response assay to identify agonists of the human trace amine associated receptor 1 (TAAR1).; type: functional
cells [6] = type: functional, cell-based; remark: listed apart in the source
Cytochrome P450 2C9 = Cytochrome P450 2C9 (Homo sapiens, UniProt P11712)
Chain of Cytochrome P450 2C9 (P11712 whole entry): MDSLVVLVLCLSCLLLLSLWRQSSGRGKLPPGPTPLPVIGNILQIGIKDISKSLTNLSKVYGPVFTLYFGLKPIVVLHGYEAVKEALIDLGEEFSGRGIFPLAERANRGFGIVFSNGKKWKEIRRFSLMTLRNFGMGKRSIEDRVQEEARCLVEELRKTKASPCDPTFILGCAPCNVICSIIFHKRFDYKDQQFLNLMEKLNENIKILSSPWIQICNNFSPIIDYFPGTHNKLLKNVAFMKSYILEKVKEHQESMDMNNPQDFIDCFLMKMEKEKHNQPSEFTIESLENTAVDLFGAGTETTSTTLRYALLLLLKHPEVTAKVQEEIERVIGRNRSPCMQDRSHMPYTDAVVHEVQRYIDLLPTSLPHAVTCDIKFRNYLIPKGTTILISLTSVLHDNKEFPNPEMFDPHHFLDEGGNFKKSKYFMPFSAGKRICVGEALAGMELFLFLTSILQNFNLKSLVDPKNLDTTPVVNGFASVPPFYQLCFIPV

[7] = inhibitors of SNCA 5'UTR-driven reporter translation, confirmation, H4 neuroglioma cells, luminescence (AID 1988); type: functional, cell-based
[8] = inhibitors of firefly luciferase expression or activity, dose response, H4 neuroglioma cells, luminescence (AID 1990); type: functional, cell-based
[9] = target: T3, Mitochondrial peptide methionine sulfoxide reductase (Bos taurus, UniProt P54149); type: functional;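 further: absorbance read-out, biochemical high-throughput dose-response screen for MsrA inhibitors, confirmatory; recombinant bovine MsrA coupled to E. coli TrxB with NADPH and selenocystamine; potency is for inhibitors of MsrA activity on DMSO substrate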
T3 sequence (P54149 whole entry): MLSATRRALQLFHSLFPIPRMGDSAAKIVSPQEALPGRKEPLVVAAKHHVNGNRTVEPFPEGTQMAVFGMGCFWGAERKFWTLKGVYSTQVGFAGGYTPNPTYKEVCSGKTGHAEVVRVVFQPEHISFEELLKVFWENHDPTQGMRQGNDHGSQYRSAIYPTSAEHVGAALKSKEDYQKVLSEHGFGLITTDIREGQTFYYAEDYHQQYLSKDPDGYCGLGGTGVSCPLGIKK

[10] = Luminescence Cell-Based Dose Response HTS to Identify Inhibitors of 5'UTR Stem-Loop Driven Prion Protein mRNA Translation in H4 Neuroglioblastoma Cells. [Related pubchem assays: 1827 (Project Summary), 1813 (Primary HTS)]; type: functional
[11] = cytotoxicity toward NIH3T3 fibroblasts, dose response, counter-screen, cell-based, ATP luminescence, mouse fibroblasts (AID 2010); type: functional;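 further: cells exposed to compound for about 90 hours before reading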
[12] = inhibitors of intracellular T. cruzi replication, confirmation, NIH3T3 host cells, beta-gal luminescence (AID 2044); type: functional, cell-based;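 further: intracellular parasites grown in NIH/3T3 mouse fibroblasts as host cells; luminescent beta-galactosidase reporter signal from transgenic T. cruzi replicating inside host cells; inhibitors lower the luminescence signal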
P388 = assay: cells; type: functional; conditions: Mus musculus
SN12K1 = assay: cells; type: functional; conditions: Homo sapiens
[13] = target: Photoreceptor-specific nuclear receptor (Homo sapiens, UniProt Q9Y5X4); type: functional, cell-based;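 further: CHO-S cells with Gal4-NCOR and VP16-NR2E3 two-hybrid luciferase reporter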
Chain of Photoreceptor-specific nuclear receptor (Q9Y5X4 whole entry, the tested form may be a part): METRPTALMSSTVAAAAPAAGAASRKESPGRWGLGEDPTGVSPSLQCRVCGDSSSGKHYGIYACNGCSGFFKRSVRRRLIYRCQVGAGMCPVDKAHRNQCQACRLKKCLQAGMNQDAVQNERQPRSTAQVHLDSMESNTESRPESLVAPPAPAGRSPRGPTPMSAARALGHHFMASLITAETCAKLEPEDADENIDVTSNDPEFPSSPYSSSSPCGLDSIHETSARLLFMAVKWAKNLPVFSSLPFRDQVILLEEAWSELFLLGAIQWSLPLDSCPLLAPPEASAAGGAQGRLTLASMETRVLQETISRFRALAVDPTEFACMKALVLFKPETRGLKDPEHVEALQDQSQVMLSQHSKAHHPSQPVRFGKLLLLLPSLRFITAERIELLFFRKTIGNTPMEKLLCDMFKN

[14] = target: T4, DNA repair protein RAD52 homolog (Homo sapiens, UniProt P43351); type: functional, biochemical
T4 sequence (P43351 whole entry): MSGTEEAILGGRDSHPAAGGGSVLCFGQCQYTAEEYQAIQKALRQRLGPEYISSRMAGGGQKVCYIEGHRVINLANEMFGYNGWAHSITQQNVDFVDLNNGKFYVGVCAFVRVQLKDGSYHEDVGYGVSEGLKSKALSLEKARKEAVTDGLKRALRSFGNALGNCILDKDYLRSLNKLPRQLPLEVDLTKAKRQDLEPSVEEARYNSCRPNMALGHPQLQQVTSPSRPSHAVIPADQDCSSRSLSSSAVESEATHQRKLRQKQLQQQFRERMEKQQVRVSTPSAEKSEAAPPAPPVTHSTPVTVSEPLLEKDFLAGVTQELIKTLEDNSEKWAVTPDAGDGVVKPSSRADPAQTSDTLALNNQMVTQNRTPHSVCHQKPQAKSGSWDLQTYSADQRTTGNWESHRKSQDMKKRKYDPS

P388/ADR = assay: cells; type: functional; conditions: Mus musculus
[15] = off-target signal loss in HeLa-CEM21 co-culture – HeLa F-luc CTL cells, cherry-picked, counter-screen for HIV-1 Env fusion inhibitor project, dose response (AID 652040); type: functional, cell-based;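 further: potency for signal decrease marking cytotoxic or nonspecific inhibition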
[16] = inhibitors of HIV Env-driven cell fusion, dose response, cherry-pick (AID 652057); type: functional, cell-based
[17] = CEM21 lymphoblast cell cytotoxicity, dose response, cytotoxicity control for viral fusion inhibitor project, CellTiter-Glo luminescence, cherry-picked (AID 652042); type: functional, cell-based;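 further: potency for signal decrease meaning cytotoxicity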
[18] = inhibitors of clade B AD8 Env fusion, dose response, cell-based, cherry-pick (AID 652062); type: functional;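 further: luciferase signal from cell-cell fusion driven by HIV-1 clade B AD8 Env; potency is for inhibitors of fusion seen as a drop in luminescence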
[19] = ZM109 Env clade C HIV-1 fusion inhibitors, dose response, HeLa effector, CEM target cells, luciferase, cherry-pick (AID 652058); type: functional, cell-based
[20] = target: T5, Rac GTPase-activating protein 1 (Homo sapiens, UniProt Q9H0H5); assay: MgcRacGAP GTPase-activating activity inhibitors, confirmation, biochemical, ADP Hunter fluorescence, primary and confirmatory (AID 624330); type: functional
T5 sequence (Q9H0H5 whole entry): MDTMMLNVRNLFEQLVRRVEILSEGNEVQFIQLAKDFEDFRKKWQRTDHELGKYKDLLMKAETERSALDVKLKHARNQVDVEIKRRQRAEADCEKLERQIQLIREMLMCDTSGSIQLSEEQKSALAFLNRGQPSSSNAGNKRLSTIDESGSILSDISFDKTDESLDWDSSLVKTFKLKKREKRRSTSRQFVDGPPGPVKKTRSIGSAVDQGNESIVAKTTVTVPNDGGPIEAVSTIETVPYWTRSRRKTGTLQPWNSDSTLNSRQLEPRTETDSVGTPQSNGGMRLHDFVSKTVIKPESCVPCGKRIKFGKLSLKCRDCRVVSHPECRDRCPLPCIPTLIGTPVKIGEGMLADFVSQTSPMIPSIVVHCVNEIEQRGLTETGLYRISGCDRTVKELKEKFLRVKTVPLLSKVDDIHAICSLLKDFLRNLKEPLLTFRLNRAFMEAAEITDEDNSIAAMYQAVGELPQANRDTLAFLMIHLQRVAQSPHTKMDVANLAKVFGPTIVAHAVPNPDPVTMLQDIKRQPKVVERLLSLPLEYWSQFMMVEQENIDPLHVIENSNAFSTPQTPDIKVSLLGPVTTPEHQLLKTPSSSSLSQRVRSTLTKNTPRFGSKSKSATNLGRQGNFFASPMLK

[21] = HeLa cell cytotoxicity, dose response, cytotoxicity control for MgcRacGAP inhibitor project (AID 624300); type: functional
Large T antigen = Large T antigen (Simian virus 40, UniProt P03070); type: functional, Betapolyomavirus macacae;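 further: Confirmatory-stage PubChem screen for compounds that inhibit SV40 T antigen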
Chain of Large T antigen (P03070 whole entry): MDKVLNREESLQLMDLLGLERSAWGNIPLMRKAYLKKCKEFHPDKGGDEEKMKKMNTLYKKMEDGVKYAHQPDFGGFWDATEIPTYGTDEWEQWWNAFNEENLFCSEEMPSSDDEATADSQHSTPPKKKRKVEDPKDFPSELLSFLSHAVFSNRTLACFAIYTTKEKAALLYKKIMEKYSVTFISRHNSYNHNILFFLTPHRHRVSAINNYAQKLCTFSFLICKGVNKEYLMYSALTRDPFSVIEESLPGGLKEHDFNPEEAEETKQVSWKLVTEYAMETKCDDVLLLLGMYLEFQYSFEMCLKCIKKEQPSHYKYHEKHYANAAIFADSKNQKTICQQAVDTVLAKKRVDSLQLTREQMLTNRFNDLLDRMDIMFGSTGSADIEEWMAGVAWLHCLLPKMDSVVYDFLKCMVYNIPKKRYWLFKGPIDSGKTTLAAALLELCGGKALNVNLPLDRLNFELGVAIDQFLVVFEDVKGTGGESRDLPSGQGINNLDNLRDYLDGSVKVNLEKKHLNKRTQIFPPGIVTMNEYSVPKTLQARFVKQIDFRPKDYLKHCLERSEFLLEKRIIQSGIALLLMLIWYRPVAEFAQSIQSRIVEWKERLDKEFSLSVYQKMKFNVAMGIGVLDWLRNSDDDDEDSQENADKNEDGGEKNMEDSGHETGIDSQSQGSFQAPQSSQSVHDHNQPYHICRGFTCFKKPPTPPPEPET

[22] = target: T6, Tyrosyl-DNA phosphodiesterase 2 (Homo sapiens, UniProt O95551); assay: human TDP2 enzyme inhibitors, dose response, biochemical, epi absorbance, IC50 (AID 743297)
T6 sequence (O95551 whole entry): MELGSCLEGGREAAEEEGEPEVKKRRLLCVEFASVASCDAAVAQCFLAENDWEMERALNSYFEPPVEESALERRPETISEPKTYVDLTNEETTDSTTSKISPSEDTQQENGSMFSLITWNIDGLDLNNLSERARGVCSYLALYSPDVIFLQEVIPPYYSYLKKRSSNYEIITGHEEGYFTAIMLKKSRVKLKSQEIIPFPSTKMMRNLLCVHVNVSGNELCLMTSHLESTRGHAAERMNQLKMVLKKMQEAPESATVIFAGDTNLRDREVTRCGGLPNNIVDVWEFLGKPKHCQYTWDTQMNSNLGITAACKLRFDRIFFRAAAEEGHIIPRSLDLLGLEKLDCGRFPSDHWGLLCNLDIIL

Genome polyprotein = Genome polyprotein (dengue virus type 2, UniProt P29990); assay: Dengue-2 NS5 methyltransferase inhibitors, primary screen, biochemical, confirmation dose response (AID 588689); type: functional
Chain of Genome polyprotein (P29990 2492-3391 limits assumed): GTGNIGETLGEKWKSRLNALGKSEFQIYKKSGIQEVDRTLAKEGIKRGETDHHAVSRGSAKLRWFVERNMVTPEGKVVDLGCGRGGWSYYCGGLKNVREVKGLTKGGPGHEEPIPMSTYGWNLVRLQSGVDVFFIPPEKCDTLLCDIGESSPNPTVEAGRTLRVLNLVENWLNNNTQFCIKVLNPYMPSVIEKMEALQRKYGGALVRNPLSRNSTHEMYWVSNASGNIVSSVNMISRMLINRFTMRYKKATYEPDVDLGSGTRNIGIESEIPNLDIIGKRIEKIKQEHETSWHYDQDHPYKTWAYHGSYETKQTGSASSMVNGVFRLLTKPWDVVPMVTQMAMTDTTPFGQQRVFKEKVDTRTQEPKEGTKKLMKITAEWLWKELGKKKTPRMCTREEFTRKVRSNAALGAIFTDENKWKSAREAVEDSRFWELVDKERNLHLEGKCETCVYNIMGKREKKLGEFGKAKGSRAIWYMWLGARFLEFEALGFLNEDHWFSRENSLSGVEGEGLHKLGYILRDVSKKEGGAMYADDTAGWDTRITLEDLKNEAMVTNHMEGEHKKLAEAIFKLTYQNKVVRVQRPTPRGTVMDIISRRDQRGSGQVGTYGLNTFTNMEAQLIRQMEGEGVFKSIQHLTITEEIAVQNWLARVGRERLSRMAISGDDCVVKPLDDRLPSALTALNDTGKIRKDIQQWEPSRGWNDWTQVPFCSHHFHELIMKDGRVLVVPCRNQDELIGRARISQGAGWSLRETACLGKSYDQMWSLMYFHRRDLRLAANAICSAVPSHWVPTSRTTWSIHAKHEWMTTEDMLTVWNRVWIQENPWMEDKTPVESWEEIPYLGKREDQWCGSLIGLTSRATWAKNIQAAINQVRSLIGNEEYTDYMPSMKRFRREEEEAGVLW

[23] = THP-1 cell cytotoxicity, dose response, cytotoxicity control for non-replicating M. tuberculosis project (AID 489025); type: functional
Nonstructural protein 1 = Nonstructural protein 1 (Influenza A virus, UniProt Q194T2); type: functional, Influenza A virus (A/California/07/2009(H1N1))
Chain of Nonstructural protein 1 (Q194T2 whole entry): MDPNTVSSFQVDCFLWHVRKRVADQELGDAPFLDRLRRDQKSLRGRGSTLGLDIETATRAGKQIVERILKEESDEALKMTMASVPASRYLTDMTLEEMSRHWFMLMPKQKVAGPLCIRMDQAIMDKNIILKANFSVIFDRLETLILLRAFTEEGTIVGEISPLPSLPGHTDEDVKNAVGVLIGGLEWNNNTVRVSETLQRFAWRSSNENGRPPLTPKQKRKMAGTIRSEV

NC(=S)N1OC[C@@H]2COc3ccc4ccccc4c3[C@@H]21
IC50 (Interleukin-8): 8.34 µM (active)

CC(Oc1ccc(S(=O)(=O)N2CCCC2)cc1[N+](=O)[O-])C(=O)NC(C)c1ccccc1 (stereo not drawn)
IC50 [1]: 11.8 µM (inactive) | IC50 (Steroidogenic factor 1): 7.26 µM (active) | IC50 [2]: 20.1 µM (inactive)

Cc1nc(NC(=O)c2ccccc2)cc(N2CCCCC2)n1
IC50 (Protein Wnt-3a): > 21.8 µM (inactive)

COC(=O)Nc1ccc(S(=O)(=O)NNC(=O)c2c(O)c3ccccc3[nH]c2=O)cc1
IC50 (Albumin): > 94.1 µM (inactive)

COc1ccc(C(=O)NNC(=O)CSc2nnc(COc3ccc4ccccc4c3)n2C)cc1
IC50 [3]: > 29.9 µM (inactive) | EC50 (cells [4]): > 29.9 µM (inactive) | EC50 [5]: > 29.9 µM (inactive) | IC50 (cells [6]): > 29.9 µM (inactive) | AC50 (Cytochrome P450 2C9): inconclusive

O=[N+]([O-])c1c(Nc2ccccc2O)cc(N2CCOCC2)c2nonc12
EC50 [7]: 111 µM (active) | EC50 [8]: 25.1 µM (active) | IC50 [9]: 67.7 µM (inactive) | EC50 [10]: 30.5 µM (active)

O=C(Nc1cc(N2CCSCC2)ncn1)c1ccccc1
IC50 (Protein Wnt-3a): > 21.8 µM (inactive)

CC1CCN(S(=O)(=O)c2ccc(NC(=O)Cn3nnc(-c4ccccc4F)n3)cc2)CC1
EC50 [11]: > 60 µM (not active) | IC50 (Albumin): > 94.1 µM (inactive) | EC50 [12]: 2.23 µM (active)

COc1cc2c(oc(=O)c3cc(C)cc(OC)c32)c2c(C3OC(C)C(O)C(C)(O)C3O)ccc(O)c12 (stereo not drawn)
GI50 (P388): 0.171 µM (active) | GI50 (SN12K1): 0.349 µM (active) | IC50 [13]: 12.7 µM (inactive) | AC50 [14]: 18.8 µM (active) | GI50 (P388/ADR): 0.219 µM (active)

CCOc1ccc(/C=N/CC(O)c2ccccc2)cc1 (stereo not drawn)
IC50 [3]: 3.27 µM (active) | EC50 (cells [4]): > 29.9 µM (inactive) | EC50 [5]: 0.769 µM (active) | IC50 (cells [6]): > 29.9 µM (inactive)

CC(=O)Nc1ccc(Nc2cc([N+](=O)[O-])cc(Cl)[n+]2[O-])cc1
IC50 [1]: 5.74 µM (active) | IC50 (Steroidogenic factor 1): 1.56 µM (active) | IC50 [2]: 35.9 µM (inactive)

COc1cc(CN2CCc3ccccc3C2)cc([N+](=O)[O-])c1O
IC50 [3]: 6.77 µM (active) | EC50 (cells [4]): > 29.9 µM (inactive) | EC50 [5]: 1.01 µM (active) | IC50 (cells [6]): > 29.9 µM (inactive)

CN(C)C(=O)c1cccc(-c2cnc3sc(NCc4ccc5c(c4)OCO5)nn23)c1
AC50 [15]: 3.03 µM (active) | IC50 (Interleukin-8): 11.8 µM (inactive) | AC50 [16]: 4.47 µM (active) | AC50 [17]: 66.1 µM (active) | AC50 [18]: 4.18 µM (active) | AC50 [19]: 4.54 µM (active)

COc1cc(/C=C2\SC(=N)NC2=O)ccc1O
IC50 [20]: 11.8 µM (active) | CC50 [21]: 69.1 µM (active) | IC50 (Large T antigen): 5.02 µM (active)

O=C(Cc1ccc(S(=O)(=O)N2CCCC2)s1)Nc1cccc([N+](=O)[O-])c1
IC50 [1]: 13 µM (inactive) | IC50 (Steroidogenic factor 1): 6.79 µM (active) | IC50 [2]: 35.9 µM (inactive)

O=C(O)c1ccc(NC2=C/C(=N/S(=O)(=O)c3cccs3)c3ccccc3C2=O)cc1
IC50 [22]: 0.817 µM (active) | IC50 [9]: 4.82 µM (active) | IC50 (Genome polyprotein): 58.1 µM (active)

O=C(N/N=C/c1cccc([N+](=O)[O-])c1O)c1cccs1
CC50 [23]: 32.4 µM (active) | IC50 (Nonstructural protein 1): 7.41 µM (active) | IC50 (Albumin): > 94.1 µM (inactive)
